For one series, the target named is T1, vFLIP/NEMO interaction (Human herpesvirus 8 type P, UniProt F5HEZ4).
T1 construct: vFLIP (1-178) and NEMO (150-272) were cloned into pET28a vector; made in house; host or cells: E. coli BL21(DE3)
In words: biochemical. Type of series: binding, Kaposi's sarcoma herpesvirus (KSHV). How it is done: For the competition assay, two-fold serial dilution of the different NEMO mimetics were prepared in DMSO then diluted in TR-FRET buffer to 5× and added in triplicates to a 384 low volume well plate. His-MBP vFLIP diluted to 5× in TR-FRET buffer (250 nM) was then added to each well and incubated for 15 min at RT. His-Biotinylated NEMO diluted to 5× in TR-FRET buffer (250 nM) was the added to the mixture followed by addition of 5× or 200 nM) streptavidin-XL665 and (5× or 1 nM) of the antibody-tagged fluorophore anti-MBPK labeled with Europium cryptate). The final concentration of the NEMO mimetics ranged from 0.195 μM to 100 μM. Total assay volume was 20 μL. The plate was incubated for 1 h at RT then read using BioTek Synergy NEO. Titration of non-biotinylated NEMO (0.0195-10 μM) was used as a positive control in every run. The effect of the peptides on vFLIP/NEMO interaction was normalized to the control and expressed as percent inhibition (% of control):
%ofcontrol=FRETCHD−FRETbackground/FRETcontrol−FRETbackground where FRET control is the TR-FRET signal in DMSO treated wells (highest signal) and FRET background is TR-FRET signal in wells containing the highest concentration of non-biotinylated NEMO (10 μM) which provides the lowest signal. Normalized TR-FRET data was plotted using Graphpad Prism.
Supplementary Figure 1. Schematic representation of the Time-resolved Fluorescence Energy Transfer (TR-FRET) binding assay. (a) Complexes of recombinant his-MBP vFLIP, biotinylated His-NEMO, Europium cryptate conjugated anti-MBP antibody and strepavidin XL665 were used to generate proximity for a FRET signal between the donor fluorophore Europium cryptate and the acceptor fluorophore strepavidin XL665. The TR-FRET signal was calculated as a ratiometric measurement of the acceptor fluoroscence emission at 665nm over the donor emission at 620nm multiplied by 10000. […] (d) Size exclusion chromatography of NEMO-vFLIP complex indicating a shift to the left in absorbance at 280nm when NEMO binds specifically to vFLIP. […]

For another series, the target named is full length NEMO (Homo sapiens, UniProt Q9Y6K9). Description: Fluorescence polarization direct binding assay, NEMO control. How it is done: The relative affinity of FITC-CHD3^NEMO to MBP-vFLIP were determined using fluorescence polarization-based direct binding assay. The polarization experiments were performed using a DTX 880 Multimode Detector (Beckman) at 25 °C with excitation and emission wavelengths of 485 and 525 nm, respectively. Each polarization experiment was performed in a 96-well round bottom plate (Greiner) in assay buffer: 20 mM Tris-HCl, 150 mM NaCl, 0.5 mM TCEP, 10% glycerol, 0.1% pluronic acid, pH 8. The binding affinity (KD) values reported for each peptide are from experiments performed in triplicate. Raw values were fit to a sigmoidal dose-response nonlinear regression model in Graphad Prism 6.0.
All binding experiments with FITC-labeled CHD peptide to MBP-vFLIP were performed under the same conditions. Briefly, serial dilutions of MBP-vFLIP were made from 75 μM into 100 nM of FITC-labeled CHD peptide in assay buffer. KD was determined using the following equation[56]: KD=RT×1−FSB+LST×FSB2/FSB−LST where, […]

Another series concerns BC-1 PEL cells. In words: Live cell confocal microscopy, cellular uptake. The format is cell-based. How it is done:
Cells were then added to 35 mm glass bottom MatTek poly-lysine coated plates (p356c-0-10C) and immunofluorescence images were captured using LSM880 confocal miscroscope with Airyscan resolution detector, spectral detector and incubation. Images were processed using Fiji software (Supplementary Fig. 11).

The subject of series [1] is vFLIP and NEMO levels in Namalwa Mut vFLIP cell line. Description: vFLIP protein stability, Namalwa Mut vFLIP cell line. Type of series: cell-based. The following applies: 5 μM, within 2 h of treatment. How it is done:
vFLIP protein stability and turnover was measured by treating Namalwa WT vFLIP and NF-kB dead vFLIP mutant cell lines in the presence or absence of 5 μM of the proteasomal inhibitor MG-132 (Calbiochem cat 474790) and 100 μg/mL of the protein synthesis inhibitor cycloheximide (Sigma-Aldrich, cat. 66-81-9). Cells were harvested at the indicated time intervals and lysed in RIPA buffer and supernatants were analyzed by immunoblotting.

The next series relates to BC-1. Set-up: method as in earlier work. The following applies: BC-1, PEL, KSHV+/EBV+; ref 2,3,4 (supplement); read-out: PU-H71 LC50; cited from earlier work.
Another series deals with BC-2. Set-up: method as in earlier work. The following applies: BC-2, PEL, KSHV+/EBV+; ref 2,3,4 (supplement); read-out: PU-H71 LC50; cited from earlier work.
In a further series the test system is BC-3. Also on record: method as in earlier work. The following applies: BC-3, PEL, KSHV+; ref 2,3,4 (supplement); read-out: PU-H71 LC50; cited from earlier work.
For a further series, the system named is BCBL-1. Set-up: method as in earlier work. The following applies: BCBL-1, PEL, KSHV+; ref 2,3,4 (supplement); read-out: PU-H71 LC50; cited from earlier work.
The next series concerns Namalwa. Set-up: method as in earlier work. The following applies: Burkitt, EBV+, ref 2,3,4 (supplement), read-out: PU-H71 LC50; cited from earlier work.

pKi: −log10 of the molar value. Peptide text beside a SMILES is read from it. * marks the point of attachment. Cbz = O=C(OCc1ccccc1)*

T1 sequence (F5HEZ4 1-178): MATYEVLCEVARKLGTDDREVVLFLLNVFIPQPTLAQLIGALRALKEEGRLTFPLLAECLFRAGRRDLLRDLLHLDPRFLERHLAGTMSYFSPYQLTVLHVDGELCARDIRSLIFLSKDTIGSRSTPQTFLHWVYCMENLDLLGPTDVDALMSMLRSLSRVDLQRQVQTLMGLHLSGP
full length NEMO, sequence (Q9Y6K9 193-252 limits assumed): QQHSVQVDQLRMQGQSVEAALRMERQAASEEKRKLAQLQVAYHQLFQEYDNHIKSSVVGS

For the compound `CC[C@H](C)[C@H](NC(=O)[C@H](C)NC(=O)[C@H](CCC(=O)O)NC(C)=O)C(=O)N[C@@H](CCCNC(=N)N)C(=O)N[C@@H](CCC(N)=O)C(=O)N[C@@H](CC(C)C)C(=O)N[C@@H](Cc1ccc(O)cc1)C(=O)N[C@@H](CCC(=O)O)C(=O)N[C@@H](CCC(=O)O)C(=O)N[C@H](C(=O)N[C@@H](CCCNC(=N)N)C(=O)N[C@@H](CC(N)=O)C(=O)N[C@@H](CC(C)C)C(=O)N[C@@H](CCCCn1cc(COCc2cn(CCCC[C@H](NC(=O)[C@H](CCCNC(=N)N)NC(=O)[C@H](Cc3ccccc3)NC(=O)[C@H](CC(C)C)NC(=O)[C@H](CCCNC(=N)N)NC(=O)[C@H](Cc3c[nH]cn3)NC(=O)[C@@H](NC(=O)[C@H](CCC(=O)O)NC(C)=O)[C@@H](C)CC)C(=O)N[C@H](C(=O)N[C@@H](CC(=O)O)C(=O)N[C@@H](CCC(=O)O)C(=O)N[C@@H](CC(C)C)C(=O)N[C@H](C(=O)N[C@@H](CCCNC(=N)N)C(N)=O)[C@@H](C)CC)[C@@H](C)CC)nn2)nn1)C(N)=O)[C@@H](C)CC` [CHD1^NEMO], on vFLIP/NEMO interaction, the negative-log Ki (pKi) (in general, the negative decadic logarithm of the Ki, by convention in mol/L) is less than 4.30.

As for `CC[C@H](C)[C@H](NC(=O)[C@H](C)NC(=O)[C@H](CCC(=O)O)NC(C)=O)C(=O)N[C@@H](CCCNC(=N)N)C(=O)N[C@@H](CCC(N)=O)C(=O)N[C@@H](CC(C)C)C(=O)N[C@@H](Cc1c[nH]c2ccccc12)C(=O)N[C@@H](CCC(=O)O)C(=O)N[C@@H](CCC(=O)NC1CCCCC1)C(=O)N[C@H](C(=O)N[C@@H](CCCNC(=N)N)C(=O)N[C@@H](CCCNC(=N)N)C(=O)N[C@@H](CC(C)C)C(=O)N[C@@H](CCCCn1cc(COCc2cn(CCCC[C@H](NC(=O)[C@H](CCCNC(=N)N)NC(=O)[C@H](Cc3ccccc3)NC(=O)[C@H](CC(C)C)NC(=O)[C@H](CCCNC(=N)N)NC(=O)[C@H](C)NC(=O)[C@@H](NC(=O)[C@H](CCC(=O)O)NC(C)=O)[C@@H](C)CC)C(=O)N[C@H](C(=O)N[C@@H](CC(=O)O)C(=O)N[C@@H](CCC(=O)O)C(=O)N[C@@H](CC(C)C)C(=O)N[C@H](C(=O)N[C@@H](CCCNC(=N)N)C(N)=O)[C@@H](C)CC)[C@@H](C)CC)nn2)nn1)C(N)=O)[C@@H](C)CC` [CHD4^NEMO], the pKi at vFLIP/NEMO interaction was less than 4.30.

Turning to `CC[C@H](C)[C@H](NC(=O)[C@H](CC(C)C)NC(=O)[C@H](CCC(=O)O)NC(=O)[C@H](CC(=O)O)NC(=O)[C@@H](NC(=O)[C@H](CCCCn1cc(COCc2cn(CCCC[C@H](NC(=O)[C@H](CC(C)C)NC(=O)[C@H](CCCNC(=N)N)NC(=O)[C@H](CCCNC(=N)N)NC(=O)[C@@H](NC(=O)[C@H](CCC(=O)NC3CCCCC3)NC(=O)[C@H](CCC(=O)O)NC(=O)[C@H](Cc3c[nH]c4ccccc34)NC(=O)[C@H](CC(C)C)NC(=O)[C@H](CCC(N)=O)NC(=O)[C@H](CCCNC(=N)N)NC(=O)[C@@H](NC(=O)[C@H](Cc3c[nH]c4ccccc34)NC(=O)[C@H](CCC(=O)O)NC(=O)CCNC(=S)Nc3ccc4c(c3)C(=O)OC43c4ccc(O)cc4Oc4cc(O)ccc43)[C@@H](C)CC)[C@@H](C)CC)C(N)=O)nn2)nn1)NC(=O)[C@H](CCCNC(=N)N)NC(=O)[C@H](Cc1ccccc1)NC(=O)[C@H](CC(C)C)NC(=O)[C@H](CCCNC(=N)N)NC(=O)[C@H](Cc1c[nH]cn1)NC(=O)[C@@H](NC(=O)[C@H](CCC(=O)O)NC(C)=O)[C@@H](C)CC)[C@@H](C)CC)C(=O)N[C@@H](CCCNC(=N)N)C(N)=O` [FITC-CHD3^NEMO], the “binding to wild-type NEMO coiled coil” value at full length NEMO is given as “does not bind”. The cellular uptake result in the series on BC-1 PEL cells (500 nM FITC-labeled peptide, 37 °C, live BC-1 cells) was “enters BC-1 cells”. Further, the “cellular uptake at 4 °C / with sodium azide” value in the series on BC-1 PEL cells (4 °C or 10 mM sodium azide) is recorded as “reduction in cellular uptake”.

As for `CC(C)C[C@@H](C=O)NC(=O)[C@H](CC(C)C)NC(=O)[C@H](CC(C)C)NC(=O)OCc1ccccc1` [MG132] (Cbz-Leu-Leu-Leu-aldehyde), the “vFLIP and NEMO protein levels” value in series [1] was “stabilized vFLIP protein and increased NEMO levels”.

In the case of `CC(C)NCCCn1c(Sc2cc3c(cc2I)OCO3)nc2c(N)ncnc21` [PU-H71], the CC50 in the series with BC-1 is 36.9 nM; with BC-2, 27.1 nM; in the series with BC-3, 63.4 nM; in the series on BCBL-1 it was 217 nM; in the series with Namalwa, 337 nM.

Source of the values: publication PMC7156456, “Modulation of virus-induced NF-κB signaling by NEMO coiled coil mimics” (Nature Communications, 2020).
